# Laboratory results taken from patent US10413583B2, “Synthetic substrates for enzymes that catalyze reactions of modified cysteines and related methods” (The University of Chicago, priority 2016, dated 2019).
# Columns and labels:
# HEPG2 cells [1] = test: Fluorescence imaging of RDP-1 with HEPG2 cells (PalmB, palmitate); format: cell-based, human; details: palmitate pretreatment for 6 hours
# Protocol: HEPG2 were plated with […] of DMEM (Gibco, Gaithersburg, Md., United States of America; High Glucose, Glutamax, 10% FBS) a four well chambered imaging dish (D35C4-20-1.5-N, Cellvis, Mountain View, Calif., United States of America) which were precoated with 4 μg Poly-D-lysine (30-70 KDa, Alfa Aesar, Haverhill, Mass., United States of America) for 2 h at room temperature or overnight at 4° C. and grown to ca. 80% confluence prior to imaging. 30 min before the addition of the RDP, the cell culture media was removed and cells were washed with 500 μL of serum-free DMEM (Gibco, Gaithersburg, Md., United States of America; High Glucose, Glutamax, no FBS). The media was then replaced with 500 μL of serum-free DMEM containing 100 nM Mitotracker Deep Red (Thermo Fisher Scientific, Waltham, Mass., United States of America) to assist in focusing and processing) and either 0.1% DMSO carrier as a control or Palm B in DMSO and incubated for 30 min at 37° C. and 5% CO2. The media was removed, the cells were washed with 500 μL of Live Cell Imaging Solution (Thermo Fisher Scientific, Waltham, Mass., United States of America), and 500 μL of 1 μM RDP-1 along with the Palm B or DMSO as control in Live Cell Imaging Solution was added to each well. […]
# HEPG2 cells [2] = test: Epifluorescent imaging of DPP-5 and diacetyl rhodol in HepG2 cells (PalmB, ML348, ML349, palmitate); format: cell-based, human; details: 1 mM palmitate for 6 hours post-starvation
# Protocol: 250,000 HEK293T cells/well, 120,000 HeLa cells/well, or 100,000 HepG2 cells/well were plated in 700 μL DMEM glutamax (10% FBS+1% P/S) into 4-well chambered imaging dish (D35C4-20-1.5-N, Cellvis, Mountain View, Calif., United States of America), which were precoated with 5 μg Poly-D-lysine (30-70 KDa, Alfa Aesar, Haverhill, Mass., United States of America) for 2 h. After 20-24 h, the media was replaced by 1 μM Hoechst 33342 and DMSO/5 μM PalmB in 400 μL DMEM glutamax. After 30 min of incubation at 37° C., the cells were washed with 400 μL of Live Cell Imaging Solution and replaced by 1 μM DPP-5 with DMSO or 5 μM of PalmB in Live Cell Imaging Solution. After 20 min of incubation at 37° C., images were obtained on an inverted epifluorescence microscope (Olympus IX83; Olympus Corporation, Tokyo, Japan) attached with EMCCD camera (Photometrics EVOLVE™ Delta, Photometrics, Tucson, Ariz., United States of America) with 40× oil objective (N/A 1.3) for DPP-5 (excitation filter 500/20, dichroic chroma 89007, emission filter 535/30), Hoechst 33342 (excitation filter 402/15, emission filter 455/50, dichroic chroma 89013), and brightfield. Analyses were performed in ImageJ. For data analysis, the average fluorescence intensity per image in each experimental condition was obtained by selecting ROI in Brightfield and applying that to the corresponding DPP-5 image, average background fluorescence intensity was subtracted and data was normalized to the average fluorescence intensity of the DMSO control. Each experiment was repeated in at least two biological replicates with identical results.
# 16,000 HepG2 cells/well were plated in 100 μL DMEM glutamax (10% fetal bovine serum (FBS)) into 4 wells of a 96-well chambered imaging dish (P96-1-N, Cellvis, Mountain View Calif., United States of America), which were precoated with 0.7 μg Poly-D-lysine (30-70 KDa, Alfa Aesar, Haverhill, Mass., United States of America) for 2 hrs. After 24 h, cells were washed with Live Cell Imaging Solution and replaced by 1 μM Hoechst 33342 and DMSO/10 μM ML348/10 μM ML349/10 μM of both ML348 and ML349 in 100 μL DMEM glutamax. After 30 min of incubation at 37° C., the cells were washed with 100 μL of Live Cell Imaging Solution and replaced by 1 μM DPP-5 in Live Cell Imaging Solution. After 20 min of incubation at 37° C., images were obtained on an inverted epifluorescence microscope (Leica DMi8; Leica Microsystems, Wetzlar, Germany) equipped with a camera (Hamamatsu Orca-Flash 4.0; Hamamatsu, Hamamatsu City, Japan) with 63× oil objective (N/A 1.4) and light source (Sutter Lamda XL, 300 W Xenon; Sutter Instrument, Novato, Calif., United States of America) for DPP-5 (YFP filter cube 1525306), Hoechst 33342 (DAPI filter cube), and brightfield using Leica LASX software (Leica Microsystems, Wetzlar, Germany). Analyses were performed in ImageJ. Each experiment was repeated in three biological replicates and 8-12 images were considered for plotting bar graphs for quantification. For detailed data analysis, the average fluorescence intensity per image in each experimental condition was obtained by selecting ROI in Brightfield and applying that to the corresponding DPP-5 image, average background fluorescence intensity was subtracted and data was normalized to the average fluorescence intensity of the control experiment. […] 250,000 HEK293T cells/well were plated in 700 μL DMEM glutamax (10% FBS+1% P/S) into three wells of a 4-well chambered imaging dish (D35C4-20-1.5-N, Cellvis, Mountain View, Calif., United States of America), which were precoated with 5 μg Poly-Dlysine (30-70 KDa, Alfa Aesar, Haverhill, Mass., United States of America) for 2 h. After 18 h, the media was replaced by 1 μM Hoechst 33342 in 400 μL DMEM glutamax. […] After 20 min of incubation at 37° C., images were obtained and analyzed as described above. […]
structure (smiles),measurement,setting,value
"CCCCCCCCCCCCCCCC(=O)[O-].[Na+] [palmitate, sodium palmitate]",effect on APT activity as measured by RDP-1,HEPG2 cells [1],a decrease in APT activity
same,increase in intensity of S-depalmitoylase signal as measured by DPP-5,HEPG2 cells [2],~50%
